Reference: patent EP0205308B1, “Scytophycins” (Moore, Richard Elliott, priority 1985, dated 1986)
Marks after values point to notes of the source that are not given here. Starred links: 1 amine or outer side, 2 acyl side, 3 side chain; linkers in the order of their positions; H or OH if unused. Non-standard residues stand in square brackets, D forms with d. Residues, ends and D or L forms follow the SMILES beside them. X1 = CCC(N[*:1])C(C)C(=O)O[C@H](C(=O)[*:2])[C@@H](C)CC; X2 = C[C@H](N[*:1])C(=O)C(C)(C)C(=O)[*:2]; NMeY = CN[C@@H](Cc1ccc(O)cc1)C(=O)O; NMeI = CC[C@H](C)[C@H](NC)C(=O)O; NMeV = CN[C@H](C(=O)O)C(C)C

Legend:
Experiment in all cases: In vitro agar-diffusion test
Format in all cases: cell-based
Rhizoctonia solani X767 = system: Rhizoctonia solani X767; set-up: key: - = not active
Procedure: (§1) The activity of scytophycin compounds against pathogenic fungi in standard in vitro agar-diffusion tests, using ¼"(6mm) discs holding ~30 µL of test solution, is illustrated in Tables 6-12.

[1] = system: Sclerotina homoeocarpa X768; set-up: key: - = not active
Procedure: as §1

Candida albicans X657 = system: Candida albicans X657
Procedure: as §1

Pythium ultimum X751 = system: Pythium ultimum X751
Procedure: as §1

Neurospora crassa X846 = system: Neurospora crassa X846
Procedure: as §1

[2] = system: Saccharomyces pastorianus X52; set-up: key: T = trace
Procedure: as §1

Compound | Size of Zone of Inhibition (mm) (Rhizoctonia solani X767; Table 11, 0.33 mg/mL) | Size of Zone of Inhibition (mm) (Rhizoctonia solani X767; Table 11, 1.0 mg/mL) | Size of Zone of Inhibition (mm) ([1]; Table 11, 0.33 mg/mL) | Size of Zone of Inhibition (mm) ([1]; Table 11, 1.0 mg/mL) | Size of Zone of Inhibition (mm) (Candida albicans X657; Table 8, 0.33 mg/mL) | Size of Zone of Inhibition (mm) (Candida albicans X657; Table 8, 1 mg/mL) | Size of Zone of Inhibition (mm) (Pythium ultimum X751; Table 11, 0.33 mg/mL) | Size of Zone of Inhibition (mm) (Pythium ultimum X751; Table 11, 1.0 mg/mL) | Size of Zone of Inhibition (mm) (Neurospora crassa X846; Table 8, 0.33 mg/mL) | Size of Zone of Inhibition (mm) (Neurospora crassa X846; Table 8, 1 mg/mL) | Size of Zone of Inhibition (mm) ([2]; Table 8, 0.33 mg/mL) | Size of Zone of Inhibition (mm) ([2]; Table 8, 1 mg/mL) | other results
Scytophycin D | 22 | 30 | 20 | 26 | 14 | 19 | 24 | 27 | 20 | 25 | T^a | 12 | 
CCC1NC(=O)[C@H](C)NC(=O)C(C)(C)C(=O)[C@H](C)NC(=O)[C@H](Cc2ccc(OC)cc2)N(C)C(=O)[C@H](C(C)C)N(C)C(=O)CNC(=O)[C@H]([C@@H](C)CC)N(C)C(=O)CNC(=O)[C@H]([C@@H](C)CC)OC(=O)C1C (some centres unmarked) [Majusculamide C, reference compound] (cyclo(A[X1]G[NMeI]G[NMeV][NMeY](Me)[X2])) |  |  |  |  |  |  |  |  |  |  |  |  | Size of Zone of Inhibition (mm) (Rhizoctonia solani X767; Table 10, 0.01 mg/mL): -; Size of Zone of Inhibition (mm) (Rhizoctonia solani X767; Table 10, 0.1 mg/mL): -; Size of Zone of Inhibition (mm) (Rhizoctonia solani X767; Table 10, 1.0 mg/mL): 20^a mm; Size of Zone of Inhibition (mm) ([1]; Table 10, 0.01 mg/mL): -; Size of Zone of Inhibition (mm) ([1]; Table 10, 0.1 mg/mL): -; Size of Zone of Inhibition (mm) ([1]; Table 10, 1.0 mg/mL): 17 mm; Size of Zone of Inhibition (mm) (Pythium ultimum X751; Table 10, 0.01 mg/mL): 10^a mm; Size of Zone of Inhibition (mm) (Pythium ultimum X751; Table 10, 0.1 mg/mL): 18 mm; Size of Zone of Inhibition (mm) (Pythium ultimum X751; Table 10, 1.0 mg/mL): >30 mm
Scytophycin E | 33 | 46 | 33 | 35 | 22 | 21 | 30 | 40 | 26 | 36 | 18 mm | 23 | Size of Zone of Inhibition (mm) (Rhizoctonia solani X767; Table 11, 0.33 mg/mL, second value of the cell, after the zone marked overgrowth): 15 mm; Size of Zone of Inhibition (mm) (Rhizoctonia solani X767; Table 11, 1.0 mg/mL, second value of the cell, after the zone marked overgrowth): 25 mm
